Where “and” joins values, the source holds several entries; their conditions need not be identical. Equal values may be shown once.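 Test compounds were applied to cells in 96-well plates for 48 hours at 5 doses. GI50 is the concentration that inhibits growth by half. TGI: total growth inhibition.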
Legend:
Experiment in all cases: inhibition of tumour cell growth, NCI panel, 48 h
PC-3 prostate = system: PC-3 prostate
BT-549 breast = system: BT-549 breast
M14 melanoma = system: M14 melanoma
U251 CNS = system: U251 CNS
IGROV1 ovarian = system: IGROV1 ovarian
OVCAR-4 ovarian = system: OVCAR-4 ovarian
SW-620 colon = system: SW-620 colon
HT29 colon = system: HT29 colon
A498 renal = system: A498 renal
SK-MEL-28 melanoma = system: SK-MEL-28 melanoma

Row | SMILES | GI50 (PC-3 prostate) | TGI (PC-3 prostate) [µM] | GI50 (BT-549 breast) [µM] | TGI (BT-549 breast) [µM] | GI50 (M14 melanoma) | TGI (M14 melanoma) [µM] | GI50 (U251 CNS) | TGI (U251 CNS) | GI50 (IGROV1 ovarian) | TGI (IGROV1 ovarian) [µM] | GI50 (OVCAR-4 ovarian) | TGI (OVCAR-4 ovarian) [µM] | GI50 (SW-620 colon) | TGI (SW-620 colon) [µM] | GI50 (HT29 colon) [µM] | TGI (HT29 colon) [µM] | GI50 (A498 renal) | TGI (A498 renal) | GI50 (SK-MEL-28 melanoma) | TGI (SK-MEL-28 melanoma) [µM]
1 | CC1(C)CC(=O)C=C(/C=C/Sc2c(Cl)c(Cl)nc(Cl)c2Cl)C1 | 3.54 µM | 14.1 | 5.87 | 22.3 | 11.7 µM | 24.2 | 14.8 µM | 28.5 µM | 4.75 µM | 84.9 | 20.3 µM | 57.9 | 11.8 µM | 32.7 | 16.5 | 47.1 | 21.7 µM | 36.6 µM | 15.5 µM | 31.9
2 | COC(=O)C12CCC(C)(C)CC1C1=CCC3C4(C)CC(O)C(O)C(C)(C(=O)OC)C4CCC3(C)C1(CO)CC2 (centres undefined) |  | 22 |  | 28.8 |  | 19.5 |  | 39.8 µM |  | 35.2 |  | 27.8 |  | 27.5 |  | 30.1 |  | 33.2 µM |  | 
3 | O=C(/C=C/C12c3ccccc3C(c3ccccc31)C1C(=O)N(c3ccc(Cl)cc3)C(=O)C12)c1ccccn1 (centres undefined) | 0.331 µM | 1.87 | 0.171 | 0.365 | 0.3 µM | 1.19 | 0.256 µM | 0.74 µM | 0.248 µM | 0.643 | 0.478 µM | > 30.9 | 0.3 µM | 0.994 | 0.335 | 8.67 | 0.277 µM | 0.792 µM | 0.342 µM | 1.61
4 | C/C(=N\NC(=S)N1CCN(c2ccccn2)CC1)c1ccccn1 |  | 15.1 |  | 0.577 | 0.0852 µM | 8.06 | < 0.0161 µM | 12.9 µM |  | 15 | 1.08 µM | 12.6 |  | 16.2 | < 0.0192 | 16 | 1.67 µM | 15 µM |  | 19.3
5 | N#CC(C#N)=NNc1ccc2cn[nH]c2c1 |  | > 100 |  | > 100 |  | > 100 |  | > 100 µM |  | > 100 |  | > 100 |  | > 100 |  | > 100 |  | > 100 µM |  | > 100
6 | Cc1ccc(C)c2c1C(=O)N(c1ccc(F)cc1F)C2=O | > 100 µM | > 100 | > 100 | > 100 | > 100 µM | > 100 | 89.3 µM | > 100 µM | > 100 µM | > 100 | > 100 µM | > 100 | > 100 µM | > 100 | > 100 | > 100 | > 100 µM | > 100 µM | > 100 µM | > 100
7 | C[C@@H](N)COc1ccc(-c2cnc3ccc(N[C@H](C)c4cccc(F)c4)nn23)cc1 | 1.62 µM | 9.39 | 1.68 | 3.33 | 1.49 µM | 3 | 1.59 µM | 4.18 µM | 2.18 µM | 6.23 | 2.49 µM | 11.9 | 1.55 µM | 3.44 | 1.4 | 3.82 | 1.52 µM | 5.58 µM | 1.64 µM | 3.07
8 | CS(=O)(=O)N1CCC(n2c(=O)c(Oc3ccc(F)cc3F)cc3cnc(NC4CCOCC4)nc32)CC1 | > 25 µM | > 25 | 24.5 | > 25 | > 25 µM | > 25 | > 25 µM | > 25 µM | > 25 µM | > 25 | > 25 µM | > 25 | > 25 µM | > 25 | > 25 | > 25 | 3.18 µM | > 25 µM | > 25 µM | > 25
9 | O=C([O][Hg][c]1ccccc1)c1ccccc1 | 3.29 µM | 14.7 | 1.23 | 2.64 | 1.36 µM | 2.94 | 1.38 µM | 2.8 µM | 1.48 µM | 3.58 | 1.36 µM | 6.22 | 0.943 µM | 2.63 | 2.94 | 9.82 | 1.85 µM | 7.33 µM | 1.45 µM | 2.93
10 | COc1ccc(-c2cc(/C=C3\C(=O)Nc4cc(Cl)ccc43)[nH]n2)cc1 | 2.75 µM | > 100 | 7.02 | 62 | 2.7 µM | > 100 | 3.46 µM | 25.8 µM | 4.76 µM | > 100 | 6.79 µM | 94.1 | 2.57 µM | > 100 | 3.32 | 13.1 | 2.38 µM | 7.04 µM | 7.45 µM | > 100
11 | Cc1ccc([P+](Cc2ccccc2)(c2ccccc2)c2ccccc2)cc1 | 1.53 µM | > 100 | 3.31 | 14.8 | 2.78 µM | 16.4 | 2.14 µM | 24.4 µM | 1.92 µM | 19 | 2.62 µM | > 100 | 2.66 µM | 49.6 | 1.6 | 10.5 | 1.63 µM | 7.15 µM | 3.13 µM | 25.8
12 | O=C(CN1CCN(Cc2ccccc2Cl)CC1)NC1CC(=O)c2c(Br)sc(Br)c21 (centres undefined) | 16.1 µM | 34.6 | 19.4 | 35.7 | 17.2 µM | 31.7 | 19.7 µM | 35.3 µM | 18.2 µM | 34.5 | 18.9 µM | 34.4 | 19.8 µM | 36.6 | 18 | 32.2 | 20.5 µM | 35.4 µM | 18.1 µM | 32.2
13 | N#Cc1c(NCc2ccccc2)nc(NCc2ccccc2)c(C#N)c1-c1ccc(Cl)cc1 | > 50 µM and 61.2 µM | > 100 | 63.6 | > 100 | > 50 µM and 53.5 µM | > 100 | > 50 µM and 19.2 µM | > 50 µM and 40.8 µM | > 50 µM and 37.1 µM | > 100 | > 50 µM and 23.9 µM | > 100 | > 50 µM and 44.1 µM | > 100 | > 100 | > 100 | > 50 µM and 33 µM | > 50 µM and 89.7 µM | > 50 µM and 59 µM | > 100

— PubChem BioAssay (NCI)
